Results from US20240036050A1, “Methods Of Detecting And Treating Hepatocellular Carcinoma” (The United States Government As Represented By The …, priority 2022, published 2024).

Key:
Format in all cases: cell-based, human
[1] = system: CD63-GFP stable cell line (Huh-7.5-CD63-GFP); assay: CD63-GFP expression by fluorescence microscopy after autophagy modulation; conditions: increasing concentrations, 72 hours
Description: FIGS. 5A-5D: Show impaired autophagy promotes GPC3 accumulation in exosomes. CD63-GFP stable cell line was treated with increasing concentrations of Torin1 or Bafilomycin A1 for 72 hours.
Huh7.5 cells were cultured in DMEM high glucose with 10% fetal calf serum (FBS), L-glutamine, 1 mM sodium pyruvate, and 0.1 mM non-essential amino acids with 1% penicillin and streptomycin. Huh-7.5 cells were transfected with CD63-GFP plasmid, and multiple stable cell lines expressing (Huh-7.5-CD63-GFP) were selected using G-418 (Sigma-Aldrich, St. Louis, MO) selection. Human cholangiocarcinoma cell line (HuCCA) and human embryonic kidney cell line (HEK 293) were purchased from ATCC. These two cell lines were cultured according to the instruction provided by the supplier and maintained with regular medium change every three days. Torin 1 was purchased from EMD Millipore, Burlington, MA (475991-10MG), and Bafilomycin A1 were purchased from Cell Signaling Technology, Danvers, MA (54645S). Exosome-free fetal bovine serum was purchased from ThermoFisher Waltham, MA (A2720803). Monoclonal rabbit and mouse antibodies were used as primary antibodies in western blot as well as fluorescent microscopy imaging. Anti-CD81 monoclonal rabbit—MA5-13548—and anti-glypican3 monoclonal rabbit—MA5-16368 purchased from ThermoFisher. […]

Huh-7.5 cells [2] = assay: GPC3, Tsg101 and CD63 expression in HCC cells by fluorescence microscopy and Western blot; conditions: for GPC3 and Tsg101 expression: fluorescence microscopy
Description: Huh7.5 cells were cultured in DMEM high glucose with 10% fetal calf serum (FBS), L-glutamine, 1 mM sodium pyruvate, and 0.1 mM non-essential amino acids with 1% penicillin and streptomycin. Huh-7.5 cells were transfected with CD63-GFP plasmid, and multiple stable cell lines expressing (Huh-7.5-CD63-GFP) were selected using G-418 (Sigma-Aldrich, St. Louis, MO) selection. Human cholangiocarcinoma cell line (HuCCA) and human embryonic kidney cell line (HEK 293) were purchased from ATCC. These two cell lines were cultured according to the instruction provided by the supplier and maintained with regular medium change every three days. Torin 1 was purchased from EMD Millipore, Burlington, MA (475991-10MG), and Bafilomycin A1 were purchased from Cell Signaling Technology, Danvers, MA (54645S). Exosome-free fetal bovine serum was purchased from ThermoFisher Waltham, MA (A2720803). Monoclonal rabbit and mouse antibodies were used as primary antibodies in western blot as well as fluorescent microscopy imaging. Anti-CD81 monoclonal rabbit—MA5-13548—and anti-glypican3 monoclonal rabbit—MA5-16368 purchased from ThermoFisher. Anti-ARF6 monoclonal rabbit—5740S—and anti-Beta actin monoclonal rabbit—4970S purchased from Cell signaling, Anti-Tsg 101 monoclonal mouse sc-7964 purchased from Santa Cruz Biotechnology.
Western blotting was performed using a standard protocol. Cultured cells were harvested by the treatment of trypsin-EDTA (Life Technologies, Carlsbad, CA, USA) at different time points and were washed twice with PBS, then lysed in ice-cold RIPA buffer (Sigma-Aldrich, St. Louis, MO, USA) with a protease inhibitor (ThermoFisher Scientific, Waltham, MA, USA) and phosphatase inhibitor cocktail (Sigma-Aldrich, St. Louis, MO, USA). The total protein content of the extract was quantified using NanoDrop™ 2000 (ThermoFisher Scientific, Waltham, MA, USA). Cell lysates (approximately 20 μg of protein) were loaded by SDS-PAGE and transferred into a nitrocellulose membrane ([…] pore size, ThermoFisher Scientific, Waltham, MA, USA). […]

Huh-7.5 cells [3] = assay: Exosome and microvesicle production by immuno-magnetic bead affinity flow cytometry; conditions: 72 hours; for exosome production and GPC3 positive exosomes: CD63 beads
Description: Cells were cultured in exosome-depleted medium three days before the EV analysis. Briefly, cellular debris was removed from the culture supernatant by centrifugation at 2000 g for 30 minutes. Cleared supernatants were transferred to a new tube and mixed with 0.5 volumes of total EV isolation reagent from Invitrogen Carlsbad, CA (4478359). Tubes were incubated at 40 C overnight. The following day samples were centrifuged at 10,000 g for one hour at 40 C. Carefully removed supernatant, and EV pellet was resuspended in PBS and stored at […]. EVs concentration and size distribution were determined using NanoSight (Model NTA3300 with 532 nm green laser module, Malvern, Worcestershire, UK). Biotin anti-human CD63 antibody (Clone: H5C6) was purchased from BioLegend, San Diego, CA (353018). Biotin-conjugated Annexin A1 antibody was purchased from FabGennix Frisco, TX (ANXA1-BIOTIN). Biotin conjugated heparin was purchased from Sigma-Aldrich, Saint Louis, MO (B9806-10MG). Anti-glypican-3 (sc-390587 AF488), Anti-ARF6 (sc-7971 FITC), and Anti-CD81 (sc-166029 PE) were purchased from Santa Cruz Biotechnology, Santa Cruz, CA.
Streptavidin-coated magnetic beads were purchased from Invitrogen Carlsbad, CA (10608D). Beads were prewashed in phosphate buffer saline (PBS) and then incubated with biotinylated antibodies for one hour. Antibodies to CD63 or Annexin A1 were used at a proportion of 4 μg/5 mg of beads, or biotinylated heparin was used at 100 μg/1 mg of beads. […] Following this step, the EV-bead complex was incubated with fluorescence-labeled antibodies diluted in 100 μl PBS 1% BSA for one hour at room temperature. Beads were washed in PBS 1% BSA and then analyzed on a Becton-Dickinson flow cytometer (BD FACS Celesta) using BD FACSDiva Software 6.0, San Jose, CA. […]
The bead-based assay was used to verify the production of microvesicles and exosomes by autophagy modulation. […] The impact of autophagy modulation on the production of exosomes and microvesicles was quantified by flow analysis. […] The next day captured EVs were analyzed after staining with […] by flow cytometry. […]

[4] = system: HCC cell lines (Huh-7, Huh-7PX, Huh-7.5, HLE); assay: DQ-Red BSA endocytosis assay with Torin1 stimulation; conditions: Torin1 200 nM
Source text: (§1) FIGS. 9A-9H: Show Association between p62, autophagy status, and glypican 3 (GPC3) expression in HCC cell lines and normal hepatocytes. […] Scale bars=m. […] The results are expressed as the mean±standard deviation (SD). ***P<0.001. For each cell line 10 view fields were quantified. […] Scale bars=20 m. […] Scale bars=20 m.
DQ™ Red BSA (D12051, Thermo Scientific) is a fluorogenic substrate that is endocytosed in cells and traffics through early endosomes to late endosomes that then fuse with acidic hydrolase containing lysosomes. This leads to the formation of endo-lysosomes that degrade DQ-Red BSA, de-quenching the fluorescence of the dye attached to this cargo, therefore, produces bright red spots in endo-lysosomes. Equal number of cells was seeded in 6-well plate. Then, untreated and Torin1-treated live cells were incubated with DQ-Red BSA for one hour. After washing cells with PBS, cells were fixed with 4% paraformaldehyde and counterstained with Hoechst 33342 (H3570, Thermo Scientific). Cells were examined using fluorescent microscopy.
Next, it was confirmed whether HCC cell lines and non-transformed primary hepatocytes could recapitulate impaired autophagy and increased GPC3 expression specific to HCC. A panel of 6 HCC cell lines was examined for p62 expression levels compared to primary human hepatocytes (PHH) using immunocytochemistry (FIG. 9A). […]

[5] = system: autophagy-deficient HCC lines (Huh-7, Huh-7PX, Huh-7.5); assay: p62 degradation by Western blot after Torin1 treatment
Source text: as §1
PHHs or HCC cells were immobilized on glass slides and stained for p62 and glypican 3 by immunostaining. Exosomes and adherent cells were separated isolated from the cultures and lysates (20 μg of protein) prepared and examined for expression of p62, glypican 1, glypican 3 and exosome markers, CD9, TSG101 by SDS-PAGE electrophoresis and Western blotting. Cells were lysed in ice-cold lysis buffer (50 mM Tris HCl pH 8.0, 140 mM NaCl, 1.5 mM MgCl2, 0.5% NP-40 with complete protease inhibitor from Invitrogen) for 10 minutes in ice (about 1×10^6 cells/200 μL). Cells pelleted by low-speed centrifugation. The detergent compatible (DC) protein assay determined protein concentration. Samples were boiled for 10 minutes at 80° C. in the presence of 1× sodium dodecyl sulfate-polyacrylamide gel electrophoresis (SDS-PAGE)-loading buffer (250 mM Tris-HCl pH 6.8, 40% glycerol, 8% SDS, 0.57M β-mercaptoethanol, 0.12% bromophenol blue). Approximately 20 μg of protein was loaded onto 12% SDS-PAGE and transferred into a nitrocellulose membrane (LC2001 Thermo Scientific). […]

Compound: CCC(=O)N1CCN(c2ccc(-n3c(=O)ccc4cnc5ccc(-c6cnc7ccccc7c6)cc5c43)cc2C(F)(F)F)CC1 [Torin1]
- CD63-GFP expression [1]: degrades CD63-GFP chimera protein
- GPC3 and Tsg101 expression (Huh-7.5 cells [2]): degrades GPC3 and Tsg101
- GPC3 and CD63 levels by Western blot (Huh-7.5 cells [2]; two concentrations, 72 hours): leads to GPC3 and CD63 degradation
- ARF6 positive microvesicles (Huh-7.5 cells [3]; Annexin A1 beads): promote ARF6 positive microvesicles
- exosome production and GPC3 positive exosomes (Huh-7.5 cells [3]): decreased total exosome production and glypican3 positive exosomes
- DQ-BSA fluorescence signal ([4]; autophagy-deficient HCC lines (Huh-7, Huh-7PX, Huh-7.5)): could only be induced following Torin1 treatment
- DQ-BSA fluorescence signal ([4]; autophagy-sufficient HLE cells): increased
- p62 levels [5]: decreased p62 levels

Compound: CO/C1=C\C(C)=C\[C@@H](C)[C@@H](O)[C@@H](C)C/C(C)=C/C=C/[C@H](OC)[C@@H]([C@@H](C)[C@@H](O)[C@H](C)[C@@]2(O)C[C@@H](O)[C@H](C)[C@@H](C(C)C)O2)OC1=O [Bafilomycin A1]
- CD63-GFP expression [1]: induced its expression
- GPC3 and Tsg101 expression (Huh-7.5 cells [2]): accumulates GPC3 expression
- exosome production and GPC3 positive exosomes (Huh-7.5 cells [3]): increased exosome release and glypican-positive exosomes
